Consider one molecule from patent US20240148767A1, “THE USE OF EMPAGLIFLOZIN FOR THE TREATMENT OF ULCERATIVE COLITIS AND CROHN'S DISEASE” (The Governors of the University of Alberta, priority 2021, published 2024).

“Also recorded” adds a separate entry of the source.

For data set [1], the system named is IL-10−/− mice with established colitis. Briefly: EMPA treatment of adult IL-10−/− mice with established colitis. The format is in vivo, mouse. From the text: Methods: In our colony, IL-10−/− mice begin to develop colitis between 8-12 weeks of age. […] Further, this dose was also chosen to match the active dose in humans by considering the differences in the metabolism and other pharmacokinetic parameters between mice and humans^55. The dose used in this study results in free plasma concentration of ˜20 nmol/L in mice^56 which is within the normal and safe range of that reported in humans^57-59. […] Adult IL-10^−/− mice with established colitis were treated with a daily gavage of EMPA (10 mg/kg; n=10) or vehicle (n=10) for 14 days. Disease activity was assessed by measurement of mouse weight, colonic weight and length, histological score, cytokine levels in colonic homogenate and lipocalin-2 levels in stool. To examine for possible direct effects of EMPA, colonic explants from wild-type and IL-10^−/− mice were incubated with increasing doses of EMPA (0.1-5 μM)±LPS for 2 hours and tissue levels of IL-1β and TNFα measured.
FIG. 4. Representative histological samples of colons. Colons were flushed with phosphate-buffered saline containing 0.1% gentamycin and immediately fixed in 10% v/v neutral buffered formalin. The fixed samples were paraffin-embedded, sectioned, and stained with hematoxylin and eosin. Disease scoring methods used were based on four scores: 1) epithelial hyperplasia (0-3), 2) enterocyte injury (0-3), 3) lymphocytes (0-2) and neutrophil infiltration (0-2) in the lamina propria. The total maximum histological score (10) is based on the sum of the individual scores. (A) control. (B) Empa.

Another data set deals with SGLT2 over SGLT1. Particulars: cited from earlier work.
The subject of a further data set is murine macrophages. Conditions: murine macrophages in vitro, cited from earlier work.
The conditions of data set [2]: healthy humans, dose matched to the human active dose; cited from earlier work.
For data set [3] the following is noted: mice, 10 mg/kg dose; cited from earlier work.
Another data set has as its system human THP-1 macrophages. Particulars: pretreatment for 24 hours; cited from earlier work.
For data set [4] the following is noted: cited from earlier work.
[5] abbreviates: EMPA 10 mg/kg daily gavage, 14 days, p=0.04.

Usually bioavailability stands for the share of a dose that reaches the circulation, judged against a reference dose that is usually intravenous. In general, half-life refers to how long it takes for the measured level to halve.

Turning to `OC[C@H]1O[C@@H](c2ccc(Cl)c(Cc3ccc(O[C@H]4CCOC4)cc3)c2)[C@H](O)[C@@H](O)[C@@H]1O` [EMPA, Empagliflozin], in data set [1] (EMPA 10 mg/kg daily gavage, 14 days), the “lymphocytic infiltration into the lamina propria” value was “reduced”. In addition, in data set [1] (EMPA 10 mg/kg daily gavage, 14 days, vs vehicle, p<0.01), the “enterocyte injury (histological score)” value is listed as “no enterocyte injury; also recorded: significant decrease”. Further, in data set [1] (EMPA 10 mg/kg daily gavage, 14 days, vs vehicle, p=0.006), the total histological score entry is “decreased”. Besides, the “lamina propria neutrophils (histological score)” value in data set [1] (EMPA 10 mg/kg daily gavage, 14 days, vs vehicle, p=0.01) was “decreased”. In addition, in data set [1] (EMPA 10 mg/kg daily gavage, 14 days, vs vehicle, p=0.019), the “colonic weight to length ratio” value is on record as “decreased”. For the same molecule, the “fecal lipocalin-2” value in data set [1] (EMPA 10 mg/kg daily gavage, 14 days, vs vehicle, p=0.03) is on record as “decrease”. Besides, the “colonic TNFα (real-time qPCR)” value in data set [1] (EMPA 10 mg/kg daily gavage, 14 days, p=0.02) is on record as “significant decreases”. In data set [1] (setting [5]), the “colonic IFNγ (real-time qPCR)” value was “significant decreases” and the “colonic IL-1β (real-time qPCR)” value is recorded as “significant decreases”. The “body weight over the 14 days” value in data set [1] (EMPA 10 mg/kg daily gavage, vehicle treated mice continued to lose weight, p=0.04) was “maintained their weight”. Also, in data set [1] (EMPA 10 mg/kg dose, pilot experiments), the “blood glucose levels in pilot experiments” value is given as “no effect”. In data set [1] (EMPA-treated mice vs controls, 14 days), the blood glucose levels entry is “no significant differences”. In addition, the “selectivity for SGLT2 over SGLT1” value with SGLT2 over SGLT1 is listed as roughly 2700 fold. The “expression of anti-inflammatory M2 markers” value in the data set with murine macrophages (AMPK-mediated mechanism) is recorded as “increased”. In addition, in the data set on murine macrophages, the “LPS-induced ATP depletion” value is on record as “prevented”; the “LPS-induced TNFα and iNOS expression” value was “attenuated”. The hypoglycemia result in data set [2] is “does not cause hypoglycemia”. Moreover, the free plasma concentration in data set [3] was roughly 20 nM. Further, in the data set on human THP-1 macrophages, the TNFα-stimulated chemokine release result is recorded as “decreased”. The “time to peak levels” value in data set [4] (after a single dose) was 1.5 h. Further, in data set [4] (humans), the bioavailability is recorded as 78%. Moreover, the half-life in data set [4] (in humans) is roughly 12 h. In data set [4] (in vivo), the “recovered in the feces as unchanged drug” value is reported as “Approximately 40%”.
